Assay results reported in patent US7998978B2 (Pfizer Inc., priority 2006, dated 2011).
pKi: −log10 of the molar value.

What follows are compounds tested against T1, JNK1α1 (Homo sapiens, UniProt P45983) (assay: Coupled spectrophotometric (PK/LDH) JNK1α1 assay: % inhibition and Ki determination). Conditions: @1 uM; read-out: % Inhibition JNK-1.
T1 construct: catalytic domain containing amino acids 1-364 and N-terminal hexahistidine tag; hexahistidine (His6) (N); made in house; host or cells: E. coli BL21 (DE3)
T1 sequence (P45983 1-364): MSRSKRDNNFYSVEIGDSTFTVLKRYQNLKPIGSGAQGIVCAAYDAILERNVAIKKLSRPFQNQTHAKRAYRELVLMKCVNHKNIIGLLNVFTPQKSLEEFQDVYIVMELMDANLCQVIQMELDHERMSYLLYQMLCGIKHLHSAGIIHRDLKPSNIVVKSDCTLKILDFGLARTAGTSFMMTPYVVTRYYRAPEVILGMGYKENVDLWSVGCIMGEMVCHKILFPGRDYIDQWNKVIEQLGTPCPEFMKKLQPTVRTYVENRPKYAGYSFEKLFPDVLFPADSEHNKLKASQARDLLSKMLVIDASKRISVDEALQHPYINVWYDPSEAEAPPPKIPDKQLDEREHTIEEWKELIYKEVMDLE
Format: biochemical
Outline: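 Initial rates were taken from the absorbance decrease at 340 nm at 30° C. Ki was fitted with a tight-binding model over 11 concentrations (top 100 μM); single-point inhibition was tested at 1 or 10 μM.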
For `O[C@H]1CC[C@H](Nc2ncc3ccc(OCc4ccccc4CN4CCCC4)cc3n2)CC1` [Example 297, trans-4-[(7-{[2-(pyrrolidin-1-ylmethyl)benzyl]oxy}quinazolin-2-yl)amino]cyclohexanol], the inhibition at 1 µM was 28%. In the case of `O[C@H]1CC[C@H](Nc2ncc3cccc(OCCN4CCCCC4)c3n2)CC1` [Example 255, trans-4-{[8-(2-piperidin-1-ylethoxy)quinazolin-2-yl]amino}cyclohexanol], the inhibition at 1 µM was 12%. Compound `CN1CCC(Oc2ccc3cnc(N[C@H]4CC[C@H](O)CC4)nc3c2)CC1` [Example 271, trans-4-({7-[(1-methylpiperidin-4-yl)oxy]quinazolin-2-yl}amino)cyclohexanol] has an inhibition at 1 µM of 41%. `Cc1cc(NC(=O)c2cccc3cnc(N[C@H]4CC[C@H](O)CC4)nc23)nc(C)n1` [Example 322, N-(2,6-dimethylpyrimidin-4-yl)-2-[(trans-4-hydroxycyclohexyl)amino]quinazoline-8-carboxamide] showed an inhibition at 1 µM of 18%. In the case of `CCN1CC(CNC(=O)c2cccc3cnc(N[C@H]4CC[C@H](O)CC4)nc23)OCC1=O` (stereo partly drawn) [Example 529, N-[(4-ethyl-5-oxomorpholin-2-yl)methyl]-2-[(trans-4-hydroxycyclohexyl)amino]quinazoline-8-carboxamide], the inhibition at 1 µM was 16%. With `COC[C@H]1CCC[C@H]1NC(=O)c1cccc2cnc(N[C@H]3CC[C@H](O)CC3)nc12` [Example 506, 2-[(trans-4-hydroxycyclohexyl)amino]-N-[(1R,2S)-2-(methoxymethyl)cyclopentyl]quinazoline-8-carboxamide] the inhibition at 1 µM was 37%.

Same assay, conditions: @10 uM; read-out: % Inhibition JNK-1
Compound `Cc1noc(CCNC(=O)c2cccc3cnc(N[C@H]4CC[C@H](O)CC4)nc23)n1` [Example 523, 2-[(trans-4-hydroxycyclohexyl)amino]-N-[2-(3-methyl-1,2,4-oxadiazol-5-yl)ethyl]quinazoline-8-carboxamide] has an inhibition at 10 µM of 44%. With `CC(C)c1nc(CNC(=O)c2cccc3cnc(N[C@H]4CC[C@H](O)CC4)nc23)no1` [Example 502, 2-[(trans-4-hydroxycyclohexyl)amino]-N-[(5-isopropyl-1,2,4-oxadiazol-3-yl)methyl]quinazoline-8-carboxamide] the inhibition at 10 µM was 50%. With `CN1CCCC(COc2cccc3cnc(N[C@H]4CC[C@H](O)CC4)nc23)C1` (stereo partly drawn) [Example 253, trans-4-({8-[(1-methylpiperidin-3-yl)methoxy]quinazolin-2-yl}amino)cyclohexanol] the inhibition at 10 µM was 38%. `CN1CCC(Oc2cccc3cnc(N[C@H]4CC[C@H](O)CC4)nc23)C1` (stereo partly drawn) [Example 262, trans-4-({8-[(1-methylpyrrolidin-3-yl)oxy]quinazolin-2-yl}amino)cyclohexanol] showed an inhibition at 10 µM of 61%. With `CC[C@@H](CO)NC(=O)c1ccc2cnc(NC3CCCC3)nc2c1` [Example 436, 2-(cyctopentylamino)-N-[(1S)-1-(hydroxymethyl)propyl]quinazoline-7-carboxamide] the inhibition at 10 µM was 85%. For `N#Cc1cccc(CNc2cc3cc(-c4cn[nH]c4)ccc3cn2)c1` [Example 238, 3-({[6-(1H-pyrazol-4-yl)isoquinolin-3-yl]amino}methyl)benzonitrile], the inhibition at 10 µM was 46%. Work on `c1ncc(-c2ccc(CNc3cc4cc(-c5cn[nH]c5)ccc4cn3)cc2)cn1` [Example 235, 6-(1H-pyrazol-4-yl)-N-(4-pyrimidin-5-ylbenzyl)isoquinolin-3-amine] yielded an inhibition at 10 µM of 15%.

Same assay, conditions: JNK-1
For `Oc1ccc2cnc(N[C@H]3CC[C@H](O)CC3)nc2c1` [Example 146, 2-[(trans-4-hydroxycyclohexyl)amino]quinazolin-7-ol], the pKi was 6.75. Work on `O=C(NCc1ccccn1)c1ccc2cnc(N[C@H]3CC[C@H](O)CC3)nc2c1` [Example 86, 2-[(trans-4-hydroxycyclohexyl)amino]-N-(pyridin-2-ylmethyl)quinazoline-7-carboxamide] yielded a pKi of 6.66. In the case of `O=C(NCCN1CCOCC1)c1cccc2cnc(N[C@H]3CC[C@H](O)CC3)nc12` [Example 116, 2-[(trans-4-hydroxycyclohexyl)amino]-N-(2-morpholin-4-ylethyl)quinazoline-8-carboxamide], the pKi was 5.61. In the case of `CC(C)(C)OC(=O)N1C[C@H](C(=O)Nc2cc3cc(-c4cn[nH]c4)ccc3cn2)[C@@H](c2ccccc2)C1` [Example 36], the pKi was 8.10. `O=C(COc1ccc2ccccc2c1)Nc1cc2cc(-c3cn[nH]c3)ccc2cn1` [Example 26, 2-(2-naphthyloxy)-N-[6-(1H-pyrazol-4-yl)isoquinolln-3-yl]acetamide] gave a pKi of 8.15. `O=C(NC1CCS(=O)(=O)C1)c1ccc2cnc(N[C@H]3CC[C@H](O)CC3)nc2c1` (stereo partly drawn) [Example 79, N-(1,1-dioxidotetrahydro-3-thienyl)-2-[(trans-4-hydroxycyclohexyl)amino]quinazoline-7-carboxamide] was tested, and the pKi was 6.53. Compound `O=S(=O)(N[C@H]1CC[C@H](Nc2ncc3ccc(OC4CCOC4)cc3n2)CC1)c1ccccc1` (stereo partly drawn) [Example 165, N-(trans-4-{[7-(tetrahydrofuran-3-yloxy)quinazolin-2-yl]amino}cyclohexyl)benzenesulfonamide] has a pKi of 6.82. `O[C@H]1CC[C@H](Nc2ncc3cccc(OCC(F)(F)F)c3n2)CC1` [Example 244, trans-4-{[8-(2,2,2-trifluoroethoxy)quinazolin-2-yl]amino}cyclohexanol] was tested, and the pKi was 6.63. For `O=C(NC1(CO)CCCC1)c1cccc2cnc(N[C@H]3CC[C@H](O)CC3)nc12` [Example 454, 2-[(trans-4-hydroxycyclohexyl)amino]-N-[1-(hydroxymethyl)cyclopentyl]quinazoline-8-carboxamide], the pKi was 6.66. Work on `O=C(NC(CO)c1ccccc1)c1ccc2cnc(NC3CCCC3)nc2c1` (stereo not shown) [Example 379, 2-(cyclopentylamino)-N-(2-hydroxy-1-phenylethyl)quinazoline-7-carboxamide] yielded a pKi of 6.75. `O=C(CCc1ccc(C(F)(F)F)cc1)Nc1cc2cc(-c3cn[nH]c3)ccc2cn1` [Example 39, N-[6-(1H-pyrazol-4-yl)isoquinolin-3-yl]-3-[4-(trifluoromethyl)phenyl]propanamide] was tested, and the pKi was 8.15. Compound `O=C(NC1CCOC1)c1ccc2cnc(N[C@H]3CC[C@H](O)CC3)nc2c1` (stereo partly drawn) [Example 347, 2-[(trans-4-hydroxycyclohexyl)amino]-N-(tetrahydrofuran-3-yl)quinazoline-7-carboxamide] has a pKi of 6.02. In the case of `O=C(CNC(=O)C1(c2ccccc2)CC1)Nc1cc2cc(-c3cn[nH]c3)ccc2cn1` [Example 35, N-(2-oxo-2-{[6-(1H-pyrazol-4-yl)isoquinolin-3-yl]amino)ethyl)-1-phenylcyclopropanecarboxamide], the pKi was 8.10. `CCNC(=O)c1cccc2cnc(N[C@H]3CC[C@H](O)CC3)nc12` [Example 118, N-ethyl-2-[(trans-4-hydroxycyclohexyl)amino]quinazoline-8-carboxamide] gave a pKi of 6.65. In the case of `O=C(CCc1cc(Cl)no1)Nc1cc2cc(-c3cn[nH]c3)ccc2cn1` [Example 12, 3-(3-chloroisoxazol-5-yl)-N-[6-(1H-pyrazol-4-yl)isoquinolin-3-yl]propanamide], the pKi was 7.54. `c1cc2cnc(NC3CCOCC3)cc2cc1-c1cn[nH]c1` [Example 218, 6-(1H-pyrazol-4-yl)-N-(tetrahydro-2H-pyran-4-yl)isoquinolin-3-amine] showed a pKi of 6.07. `CC(=O)N1CCC(CNC(=O)c2ccc3cnc(N[C@H]4CC[C@H](O)CC4)nc3c2)CC1` [Example 91, N-[(1-acetylpiperidin-4-yl)methyl]-2-[(trans-4-hydroxycyclohexyl)amino]quinazoline-7-carboxamide] gave a pKi of 6.19. `O=C(N[C@H](CO)Cc1ccccc1)c1ccc2cnc(NC3CCCC3)nc2c1` [Example 408, N-[(1S)-1-benzyl-2-hydroxyethyl]-2-(cyclopentylamino)quinazoline-7-carboxamide] was tested, and the pKi was 6.13. `O[C@H]1CC[C@H](Nc2ncc3cccc(OC4CCOC4)c3n2)CC1` (stereo partly drawn) [Example 171, trans-4-{[8-(tetrahydrofuran-3-yloxy)quinazolin-2-yl]amino}cyclohexanol] showed a pKi of 6.32. `O=C(Cn1nc(C(F)(F)F)c2c1CCCC2)Nc1cc2cc(-c3cn[nH]c3)ccc2cn1` [Example 37, N-[6-(1H-pyrazol-4-yl)isoquinolin-3-yl]-2-[3-(trifluoromethyl)-4,5,6,7-tetrahydro-1H-indazol-1-yl]acetamide] showed a pKi of 8.70. `Cc1ccc2cnc(N[C@H]3CC[C@H](O)CC3)nc2c1OCC(=O)N(C)CCO` [Example 212, 2-({2-[(trans-4-hydroxycyclohexyl)amino]-7-methylquinazolin-8-yl}oxy)-N-(2-hydroxyethyl)-N-methylacetamide] showed a pKi of 5.71. `O=C(NC1CC1)c1cccc2cnc(N[C@H]3CC[C@H](O)CC3)nc12` [Example 447, N-cyclopropyl-2-[(trans-4-hydroxycyclohexyl)amino]quinazoline-8-carboxamide] was tested, and the pKi was 6.92. In the case of `CC(C)[C@@H](CO)NC(=O)c1ccc2cnc(N[C@H]3CC[C@H](O)CC3)nc2c1` [Example 382, 2-[(trans-4-hydroxycyclohexyl)amino]-N-[(1S)-1-(hydroxymethyl)-2-methylpropyl]quinazoline-7-carboxamide], the pKi was 6.71. `O=C(Nc1cc2cc(-c3cn[nH]c3)ccc2cn1)c1ccccc1` [Example 17, N-[6-(1H-pyrazol-4-yl)isoquinolin-3-yl]benzamide] was tested, and the pKi was < 7.52. With `CCN(CC)CCN1CCC(Nc2cc3cc(-c4cn[nH]c4)ccc3cn2)CCC1=O` (stereo not shown) [Example 228, 1-[2-(diethylamino)ethyl]-5-{[6-(1H-pyrazol-4-yl)isoquinolin-3-yl]amino}azepan-2-one] the pKi was 4.94. Compound `O=C(NCCN1CCCC1=O)c1ccc2cnc(N[C@H]3CC[C@H](O)CC3)nc2c1` [Example 367, 2-[(trans-4-hydroxycyclohexyl)amino]-N-[2-(2-oxopyrrolidin-1-yl)ethyl]quinazoline-7-carboxamide] has a pKi of 5.66. `Cc1ccc2c(c1)CCC2C(=O)Nc1cc2cc(-c3cn[nH]c3)ccc2cn1` (stereo not shown) [Example 21, 5-methyl-N-[6-(1H-pyrazol-4-yl)isoquinolin-3-yl]indane-1-carboxamide] was tested, and the pKi was < 7.30.
